What was measured:
Assay type in all cases: in vivo
[1] = test system: Ipomoea hederacea (IPOHE); experiment: Post-emergence glasshouse herbicide test; conditions: POST Application, 1000 g/h, after 13 days
Protocol: (§1) Seeds of a variety of test species are sown in standard soil in pots (Alopecurus myosuroides (ALOMY), Setaria faberi (SETFA), Echinochloa crus-galli (ECHCG), Solanum nigrum (SOLNI), Amaranthus retoflexus (AMARE), Ipomoea hederacea (IPOHE)). After cultivation for one day (pre-emergence) or after 8 days cultivation (post-emergence) under controlled conditions in a glasshouse (at 24/16° C., day/night; 14 hours light; 65% humidity), the plants are sprayed with an aqueous spray solution derived from the formulation of the technical active ingredient in acetone/water (50:50) solution containing 0.5% Tween 20 (polyoxyethelyene sorbitan monolaurate, CAS RN 9005-64-5). Compounds ae applied at 1000 g/h. The test plants are then grown in a glasshouse under controlled conditions in a glasshouse (at 24/16° C., day/night; 14 hours light; 65% humidity) and watered twice daily. After 13 days for pre and post-emergence, the test is evaluated for the percentage damage caused to the plant. The biological activities are shown in the following table on a five point scale (5=80-100%; 4=60-79%; 3=40-59%; 2=20-39%; 1=0-19%).

[2] = test system: Echinochloa crus-galli (ECHCG); experiment: Post-emergence glasshouse herbicide test; conditions: POST Application, 1000 g/h, after 13 days
Protocol: as §1

[3] = test system: Amaranthus retoflexus (AMARE); experiment: Post-emergence glasshouse herbicide test; conditions: POST Application, 1000 g/h, after 13 days
Protocol: as §1

[4] = test system: Solanum nigrum (SOLNI); experiment: Post-emergence glasshouse herbicide test; conditions: POST Application, 1000 g/h, after 13 days
Protocol: as §1

[5] = test system: Alopecurus myosuroides (ALOMY); experiment: Post-emergence glasshouse herbicide test; conditions: POST Application, 1000 g/h, after 13 days
Protocol: as §1

[6] = test system: Ipomoea hederacea (IPOHE); experiment: Pre-emergence glasshouse herbicide test; conditions: PRE Application, 1000 g/h, after 13 days
Protocol: as §1

[7] = test system: Echinochloa crus-galli (ECHCG); experiment: Pre-emergence glasshouse herbicide test; conditions: PRE Application, 1000 g/h, after 13 days
Protocol: as §1

[8] = test system: Amaranthus retoflexus (AMARE); experiment: Pre-emergence glasshouse herbicide test; conditions: PRE Application, 1000 g/h, after 13 days
Protocol: as §1

[9] = test system: Setaria faberi (SETFA); experiment: Pre-emergence glasshouse herbicide test; conditions: PRE Application, 1000 g/h, after 13 days
Protocol: as §1

[10] = test system: Solanum nigrum (SOLNI); experiment: Pre-emergence glasshouse herbicide test; conditions: PRE Application, 1000 g/h, after 13 days
Protocol: as §1

[11] = test system: Alopecurus myosuroides (ALOMY); experiment: Pre-emergence glasshouse herbicide test; conditions: PRE Application, 1000 g/h, after 13 days
Protocol: as §1

[12] = test system: Setaria faberi (SETFA); experiment: Post-emergence glasshouse herbicide test; conditions: POST Application, 1000 g/h, after 13 days
Protocol: as §1, with “Compounds ae applied at 1000 g/h.” left out

Structure (SMILES)	percentage damage caused to the plant, IPOHE [1]	percentage damage caused to the plant, ECHCG [2]	percentage damage caused to the plant, AMARE [3]	percentage damage caused to the plant, SOLNI [4]	percentage damage caused to the plant, ALOMY [5]	percentage damage caused to the plant, IPOHE [6]	percentage damage caused to the plant, ECHCG [7]	percentage damage caused to the plant, AMARE [8]	percentage damage caused to the plant, SETFA [9]	percentage damage caused to the plant, SOLNI [10]	percentage damage caused to the plant, ALOMY [11]	percentage damage caused to the plant, SETFA [12]
Cn1nnnc1NC(=O)c1cc2cccnc2n(C)c1=O [Compound 1.001]	2 (2=20-39%)	3 (3=40-59%)	3 (3=40-59%)	5 (5=80-100%)	1 (1=0-19%)	1 (1=0-19%)	1 (1=0-19%)	2 (2=20-39%)	1 (1=0-19%)	2 (2=20-39%)	1 (1=0-19%)	1 (1=0-19%)
Cn1nnnc1NC(=O)c1cc2cnc(Cl)cc2n(-c2ccccc2)c1=O [Compound 2.001]	5 (5=80-100%)	1 (1=0-19%)	5 (5=80-100%)	5 (5=80-100%)	1 (1=0-19%)	2 (2=20-39%)	1 (1=0-19%)	5 (5=80-100%)	1 (1=0-19%)	4 (4=60-79%)	1 (1=0-19%)	1 (1=0-19%)
CCn1c(=O)c(C(=O)Nc2nnnn2C)cc2cnc(Cl)cc21 [Compound 2.002]	5 (5=80-100%)	2 (2=20-39%)	5 (5=80-100%)	5 (5=80-100%)	1 (1=0-19%)	3 (3=40-59%)	2 (2=20-39%)	5 (5=80-100%)	1 (1=0-19%)	4 (4=60-79%)	1 (1=0-19%)	1 (1=0-19%)
CCn1c(=O)c(C(=O)Nc2nnnn2C)cc2cnccc21 [Compound 2.003]	2 (2=20-39%)	1 (1=0-19%)	3 (3=40-59%)	3 (3=40-59%)	1 (1=0-19%)	1 (1=0-19%)	1 (1=0-19%)	1 (1=0-19%)	1 (1=0-19%)	1 (1=0-19%)	1 (1=0-19%)	1 (1=0-19%)
Cn1nnnc1NC(=O)c1nc2cc(C(F)(F)F)ccc2n(C)c1=O [Compound 3.001]	3 (3=40-59%)	2 (2=20-39%)	4 (4=60-79%)	4 (4=60-79%)	1 (1=0-19%)	1 (1=0-19%)	2 (2=20-39%)	2 (2=20-39%)	1 (1=0-19%)	3 (3=40-59%)	1 (1=0-19%)	2 (2=20-39%)

Reference: US9179678B2, “Substituted [1,2,4]triazoles and substituted tetrazoles as herbicides” (SYNGENTA LIMITED, priority 2012, dated 2015)
